Experiment [1] deals with CDK8/Cyclin C (Homo sapiens, UniProt P49336). Nature of the experiment: Inhibition of kinase tracer 236 binding to recombinant full length His-tagged human CDK8/CycC expressed in baculovirus expression system preincubated for 20 mins followed by tracer addition and measured after 2 hrs by FRET-based LanthaScreen Eu kinase binding assay. Background: TR-FRET usually uses a lanthanide donor and a delayed reading to cut background.

For experiment [2], the system named is HCT-116. Nature of the experiment: Growth inhibition of human HCT116 cells after 72 hrs by Celltiter-glo assay. The note with it: HCT-116, 72 h. It is filed as functional, cell-based. A general note: Cellular ATP, detected with luciferase, serves as a proxy for viable cell number.
The subject of experiment [3] is SW-620. Nature of the experiment: Growth inhibition of human SW620 cells after 72 hrs by Celltiter-glo assay. It is filed as functional, cell-based. The conditions noted are these: SW-620, 72 h.
Experiment [4] concerns HCT-116. Nature of the experiment: Cell cycle arrest in human HCT116 cells assessed as accumulation at G1-phase at 5 uM after 12 to 16 hrs by propidium iodide staining based flow cytometry (reference value: 30.99%). Type of experiment: functional. A general note: A flow cytometer gives signals particle by particle.
The subject of experiment [5] is HCT-116. Nature of the experiment: Cell cycle arrest in human HCT116 cells assessed as accumulation at G1-phase at 15 uM after 12 to 16 hrs by propidium iodide staining based flow cytometry (reference value: 30.99%). Type of experiment: functional.
The test system of experiment [6] is HCT-116. The experiment can be described thus: Cell cycle arrest in human HCT116 cells assessed as accumulation at G1-phase at 30 uM after 12 to 16 hrs by propidium iodide staining based flow cytometry (reference value: 30.99%). Type of experiment: functional.
Experiment [7] relates to HCT-116. The experiment can be described thus: Cell cycle arrest in human HCT116 cells assessed as accumulation at S-phase at 5 uM after 12 to 16 hrs by propidium iodide staining based flow cytometry (reference value: 55.74%). Type of experiment: functional.
The test system of experiment [8] is HCT-116. The experiment can be described thus: Cell cycle arrest in human HCT116 cells assessed as accumulation at S-phase at 15 uM after 12 to 16 hrs by propidium iodide staining based flow cytometry (reference value: 55.74%). Type of experiment: functional.
Experiment [9] has as its system HCT-116. The experiment can be described thus: Cell cycle arrest in human HCT116 cells assessed as accumulation at S-phase at 30 uM after 12 to 16 hrs by propidium iodide staining based flow cytometry (reference value: 55.74%). Type of experiment: functional.
In experiment [10] the test system is HCT-116. Nature of the experiment: Cell cycle arrest in human HCT116 cells assessed as accumulation at G2-phase at 5 uM after 12 to 16 hrs by propidium iodide staining based flow cytometry (reference value: 13.28%). It is filed as functional.
In experiment [11] the test system is HCT-116. The experiment can be described thus: Cell cycle arrest in human HCT116 cells assessed as accumulation at G2-phase at 15 uM after 12 to 16 hrs by propidium iodide staining based flow cytometry (reference value: 13.28%). Type of experiment: functional.
Experiment [12] relates to HCT-116. The experiment can be described thus: Cell cycle arrest in human HCT116 cells assessed as accumulation at G2-phase at 30 uM after 12 to 16 hrs by propidium iodide staining based flow cytometry (reference value: 13.28%). It is filed as functional.
The subject of experiment [13] is SW-620. Nature of the experiment: Cell cycle arrest in human SW620 cells assessed as accumulation at G1-phase at 5 uM after 12 to 16 hrs by propidium iodide staining based flow cytometry (reference value: 24.69%). It is filed as functional.
Experiment [14] relates to SW-620. Nature of the experiment: Cell cycle arrest in human SW620 cells assessed as accumulation at G1-phase at 15 uM after 12 to 16 hrs by propidium iodide staining based flow cytometry (reference value: 24.69%). It is filed as functional.
Experiment [15] relates to SW-620. The experiment can be described thus: Cell cycle arrest in human SW620 cells assessed as accumulation at G1-phase at 30 uM after 12 to 16 hrs by propidium iodide staining based flow cytometry (reference value: 24.69%). Type of experiment: functional.
Experiment [16] deals with SW-620. Nature of the experiment: Cell cycle arrest in human SW620 cells assessed as accumulation at S-phase at 5 uM after 12 to 16 hrs by propidium iodide staining based flow cytometry (reference value: 53.91%). Type of experiment: functional.
The test system of experiment [17] is SW-620. The experiment can be described thus: Cell cycle arrest in human SW620 cells assessed as accumulation at S-phase at 15 uM after 12 to 16 hrs by propidium iodide staining based flow cytometry (reference value: 53.91%). It is filed as functional.
Experiment [18] relates to SW-620. The experiment can be described thus: Cell cycle arrest in human SW620 cells assessed as accumulation at S-phase at 30 uM after 12 to 16 hrs by propidium iodide staining based flow cytometry (reference value: 53.91%). It is filed as functional.
Experiment [19] relates to SW-620. Nature of the experiment: Cell cycle arrest in human SW620 cells assessed as accumulation at G2-phase at 5 uM after 12 to 16 hrs by propidium iodide staining based flow cytometry (reference value: 19.02%). It is filed as functional.
In experiment [20] the test system is SW-620. Nature of the experiment: Cell cycle arrest in human SW620 cells assessed as accumulation at G2-phase at 15 uM after 12 to 16 hrs by propidium iodide staining based flow cytometry (reference value: 19.02%). It is filed as functional.
Experiment [21] relates to SW-620. The experiment can be described thus: Cell cycle arrest in human SW620 cells assessed as accumulation at G2-phase at 30 uM after 12 to 16 hrs by propidium iodide staining based flow cytometry (reference value: 19.02%). Type of experiment: functional.
Experiment [22] relates to HCT-116. The experiment can be described thus: Induction of G1-phase to S-phase transition arrest in human HCT116 cells after 12 to 16 hrs by propidium iodide staining based flow cytometry. It is filed as functional, cell-based.

The record followed here is ChEMBL document CHEMBL4330136, “Shape-based virtual screen for the discovery of novel CDK8 inhibitor chemotypes” (Bioorg Med Chem Lett, 2019).

Each structure is given as a SMILES string.

CDK8/Cyclin C, sequence (P49336 whole entry): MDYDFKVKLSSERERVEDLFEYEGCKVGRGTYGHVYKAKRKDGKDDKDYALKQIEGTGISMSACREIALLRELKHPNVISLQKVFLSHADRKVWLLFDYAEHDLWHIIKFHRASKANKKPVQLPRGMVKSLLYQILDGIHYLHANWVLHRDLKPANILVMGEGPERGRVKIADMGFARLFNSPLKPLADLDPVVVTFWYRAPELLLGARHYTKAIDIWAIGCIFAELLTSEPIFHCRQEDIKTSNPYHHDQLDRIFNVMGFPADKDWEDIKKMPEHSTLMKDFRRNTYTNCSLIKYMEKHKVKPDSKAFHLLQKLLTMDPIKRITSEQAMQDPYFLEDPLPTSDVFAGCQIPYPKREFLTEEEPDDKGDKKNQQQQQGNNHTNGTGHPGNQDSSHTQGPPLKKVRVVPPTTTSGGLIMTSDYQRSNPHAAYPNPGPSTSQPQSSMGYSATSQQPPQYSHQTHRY
CDK8/Cyclin C, sequence (P24863 whole entry, further chain): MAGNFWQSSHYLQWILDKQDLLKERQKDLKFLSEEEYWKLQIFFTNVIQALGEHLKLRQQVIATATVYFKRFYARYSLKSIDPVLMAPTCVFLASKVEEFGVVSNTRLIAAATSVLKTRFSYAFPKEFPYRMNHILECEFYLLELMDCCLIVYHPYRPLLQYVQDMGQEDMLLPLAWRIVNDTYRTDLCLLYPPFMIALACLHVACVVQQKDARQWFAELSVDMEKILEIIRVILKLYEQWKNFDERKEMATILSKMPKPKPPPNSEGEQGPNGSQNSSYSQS

Consider `COc1ccc(C(=O)c2cnc3ccc(F)cc3c2N2CCCCC2)cc1`, for which the figures for the IC50 in [1], in experiment [2] and in experiment [3] were 1300 nM, 4.5 µM and 25 µM, respectively. The Activity in experiment [4] is reported as 35.24%; in [5], 47.09%; in experiment [6], 62.66%; in [7], 51.63%; in [8] it was 38.98%; in experiment [9], 23.48%. For the same compound, the Activity came out at 13.13% in [10]; 13.92% in experiment [11]; 13.86% in experiment [12]; 25.08% in [13]; 28.05% in experiment [14]; 41.68% in experiment [15]. Further, the Activity amounted to 54.27% in experiment [16]; 51.89% in experiment [17]; 38.54% in experiment [18]; 18.15% in experiment [19]; 17.69% in experiment [20]; 16.94% in [21]. Besides, the Activity entry in experiment [22] was “Dose-dependent effect”.

For `Cc1n[nH]c2ncc(C(=O)N3CCC[C@H]3c3ccc(Cl)cc3)cc12`, the IC50 was 70.2 µM in [2] and 52.4 µM in experiment [3]. In addition, the Activity in experiment [4] worked out at 48.91%; in experiment [5] it was 47.08%; in experiment [6], 50.47%; in experiment [7], 29.34%; in experiment [8], 27.98%; in experiment [9], 22.36%. Moreover, the Activity in experiment [10] is recorded as 21.76%; in [11], 24.8%; in experiment [12], 27.16%; in experiment [13] it was 27.52%; in experiment [14], 30.31%; in [15], 34.8%. Further, the Activity is on record as 56.44% in experiment [16]; 54.86% in experiment [17]; 50.77% in experiment [18]; 13.83% in experiment [19]; 12.35% in experiment [20]; 11.66% in [21].

Turning to `COc1ccc(CNc2ncnc3scc(-c4ccccc4)c23)cc1`, the IC50 in experiment [1] is 2900 nM.

Usually IC50 stands for the concentration that gives 50% inhibition.
